Reference: US6800280B2, “Methods for treating HIV-infected patients by the administration of GM-CSF and a protease inhibitor” (Schering AG, priority 1997, dated 2004)
Values joined by “and” are separate entries in the source; they are usually repeats but may differ in a detail not shown here. Identical values can stand only once. “Also recorded” adds a separate entry of the source.

Key:
HIV = experiment: Phase I/II trial: HIV viral load by RNA-PCR (Amplicor) in HIV-infected patients; format: in vivo, Human Immunodeficiency Virus (HIV); conditions: GM-CSF group versus placebo group throughout the study, concurrent antiretroviral drugs
Procedure: (§1) A study was conducted to determine the safety and efficacy of human GM-CSF as a therapeutic reagent in HIV-infected patients. Because some in vitro studies had indicated the possibility that GM-CSF might enhance HIV replication in vivo, this study assessed the impact of co-administration of GM-CSF with an antiretroviral agent on HIV replication. HIV viral burden was measured by the RNA-PCR (Amplicor®) method. To assess the effects of this treatment on lymphocyte counts, blood samples were analyzed throughout the study for determination of CD3^+, CD4^+, and CD8^+ T-lymphocyte counts.
This study was a Phase I/II, randomized, double-blind, placebo-controlled, two-center trial involving patients with HIV disease. […] Viral load was determined at baseline (mean of three determinations within fourteen days of study entry), then at two weeks, four weeks, and eight weeks after starting study drugs, and on two separate occasions approximately four weeks after the conclusion of the treatment phase (post-treatment evaluation). […]
At 2, 4 and 8 weeks after the start of study drug and at follow-up (approximately 4 weeks after completion of study drug), patients were examined, their medical histories were updated, and samples were taken for laboratory studies. A central laboratory was utilized for HIV quantification laboratory tests in order to standardize procedures and minimize variability. […]

[1] = system: CD4^+ T-lymphocyte counts; experiment: Phase I/II randomized, double-blind, placebo-controlled trial: CD4^+ T-lymphocyte counts in HIV-infected patients; format: in vivo, human
Procedure: as §1
This study was a Phase I/II, randomized, double-blind, placebo-controlled, two-center trial involving patients with HIV disease. Patients meeting specific entry criteria were randomized to treatment with GM-CSF or placebo, and these were administered by subcutaneous injection three times per week for eight weeks. Viral load was determined at baseline (mean of three determinations within fourteen days of study entry), then at two weeks, four weeks, and eight weeks after starting study drugs, and on two separate occasions approximately four weeks after the conclusion of the treatment phase (post-treatment evaluation). Clinical and lymphocyte subset evaluations were performed at each of these same time points (i.e., pre-treatment, week 2, week 4, week 8, and 4 weeks post-study). Twenty patients were enrolled in the study, ten per treatment arm. All twenty patients completed the study.
Patients were eligible for inclusion in the study if the following parameters were met: documented HIV infection, including detectable RNA-PCR during baseline evaluation period, age ≧18 years (or legal age of consent), adequate hematologic function, satisfactory hepatic and renal function, adequate clinical performance status, treatment with an antiretroviral regimen that included either ritonavir or indinavir for at least 8 weeks prior to study enrollment and agreement to continue on a stable regimen throughout the study, ability and willingness to provide written informed consent, agreement to practice medically-approved contraception.
Patients were ineligible for inclusion in the study if the following exclusion criteria were met: concurrent pregnancy or breast feeding, concurrent use of other colony stimulating factors or cytokines (other than erythropoietin), life-expectancy <90 days, concurrent radiation or systemic cancer chemotherapy (or within 2 weeks prior to study entry), inability to self-administer or arrange for administration of subcutaneous injections, significant cardiac disease, prior history of adverse reaction to yeast-derived rhu GM-CSF which would prohibit retreatment, active infection (AIDS-related or not) requiring acute systemic therapy within 8 weeks prior to study enrollment, vaccination of any kind within 8 weeks of study enrollment.
Study participants were randomly assigned to receive either active GM-CSF or placebo. Patients were instructed in methods for self-administration of study medication and received preloaded syringes or vials with empty syringes for home use.
The formulation of recombinant human GM-CSF utilized in this clinical trial was LEUKINE® (commercially available from Immunex Corporation, Seattle, Wash.). LEUKINE® and placebo were supplied as lyophilized powders. Both LEUKINE® and placebo were reconstituted by the aseptic injection of Bacteriostatic Water for Injection, USP, containing 0.9% benzyl alcohol. […] These were 40 mg mannitol, USP; 10 mg sucrose, NF; and 1.2 mg TRIS (tromethamine), USP; per vial of study drug. Vials containing placebo were labeled in a fashion identical to vials containing LEUKINE®. Vials of placebo and LEUKINE® were stored refrigerated at 2-8° C. (36-46° F.). […]

[2] = WEEK 2, 9 patients, 250 mcg s.c. three times per week
[3] = WEEK 4, 10 patients, 250 mcg s.c. three times per week
[4] = WEEK 8, 10 patients, 250 mcg s.c. three times per week
[5] = WEEK 12 (post-treatment), 10 patients

Substance: GM-CSF: biosynthetic, yeast-derived, recombinant human GM-CSF; single 127 amino acid glycoprotein with leucine instead of proline at position 23
- Change in viral load (in words) (HIV): no significant increase; also recorded: No significant differences; also recorded: without a concurrent increase
- Effect on CD4^+ T-lymphocyte counts (in words) ([1]; GM-CSF arm versus baseline / placebo, patients concurrently receiving antiretroviral drugs): a trend towards an increase; also recorded: increased at all of the evaluation points; also recorded: significant increase
- Change in CD4^+ T-Lymphocyte Counts Relative to Baseline, Mean (Sd) [1, 2]: 39 (150)
- Change in CD4^+ T-Lymphocyte Counts Relative to Baseline, Median [1, 2]: −9
- Change in CD4^+ T-Lymphocyte Counts Relative to Baseline, Min-Max [1, 2]: −79-389
- Change in CD4^+ T-Lymphocyte Counts Relative to Baseline, Mean (Sd) [1, 3]: 40 (68)
- Change in CD4^+ T-Lymphocyte Counts Relative to Baseline, Median [1, 3]: 34
- Change in CD4^+ T-Lymphocyte Counts Relative to Baseline, Min-Max [1, 3]: −61-135
- Change in CD4^+ T-Lymphocyte Counts Relative to Baseline, Mean (Sd) [1, 4]: 79 (172)
- Change in CD4^+ T-Lymphocyte Counts Relative to Baseline, Median [1, 4]: 4
- Change in CD4^+ T-Lymphocyte Counts Relative to Baseline, Min-Max [1, 4]: −68-424
- Change in CD4^+ T-Lymphocyte Counts Relative to Baseline, Mean (Sd) [1, 5]: 28 (54)
- Change in CD4^+ T-Lymphocyte Counts Relative to Baseline, Median [1, 5]: 30
- Change in CD4^+ T-Lymphocyte Counts Relative to Baseline, Min-Max [1, 5]: −68-112
- Absolute CD4^+ T-Lymphocyte Counts, Baseline CD4 ([1]; individual patients of GM-CSF arm, baseline (pre-treatment), on ritonavir or indinavir regimen): 276 and 383 and 65 and 590 and 152 and 91 and 24 (2×) and 40 and 136
- Absolute CD4^+ T-Lymphocyte Counts, Post-Study CD4 ([1]; individual patients, approximately 4 weeks after completion of 8-week treatment, 250 mcg s.c. three times per week): 208 and 373 and 77 and 659 and 199 and 161 and 11 and 33 and 136 and 200
- Absolute CD4^+ T-Lymphocyte Counts, Week 2 CD4 ([1]; individual patients, week 2, 250 mcg s.c. three times per week for eight weeks, concurrent ritonavir or indinavir regimen): 229 and 304 and 227 and 979 and 77 and 25 and 26 and 15 and 157
- Absolute CD4^+ T-Lymphocyte Counts, Week 4 CD4 ([1]; individual patients, week 4, 250 mcg s.c. three times per week for eight weeks, concurrent ritonavir or indinavir regimen): 356 and 477 and 31 and 725 and 91 and 219 and 12 and 61 and 26 and 182
- Absolute CD4^+ T-Lymphocyte Counts, Week 8 CD4 ([1]; individual patients, week 8, 250 mcg s.c. three times per week for eight weeks, concurrent ritonavir or indinavir regimen): 238 and 750 and 76 and 1014 and 84 and 162 and 21 and 29 and 18 and 176
- Absolute CD4^+ T-Lymphocyte Counts, Post-Study CD4, Median ([1]; median of GM-CSF arm, approximately 4 weeks post-treatment): 180
- Absolute CD4^+ T-Lymphocyte Counts, Baseline CD4, Median ([1]; median of GM-CSF arm, baseline (pre-treatment)): 114
- Absolute CD4^+ T-Lymphocyte Counts, Week 2 CD4, Median ([1]; median of GM-CSF arm, week 2, 250 mcg s.c. three times per week): 157
- Absolute CD4^+ T-Lymphocyte Counts, Week 4 CD4, Median ([1]; median of GM-CSF arm, week 4, 250 mcg s.c. three times per week): 137
- Absolute CD4^+ T-Lymphocyte Counts, Week 8 CD4, Median ([1]; median of GM-CSF arm, week 8, 250 mcg s.c. three times per week): 123
- MAXIMUM CHANGE > 30% THRU WEEK 8, n/N ([1]; patients with CD4^+ change of 30% or more over baseline / patients counted, thru week 8): 6/10
- MAXIMUM CHANGE > 30% THRU WEEK 12, n/N ([1]; patients with CD4^+ change of 30% or more over baseline / patients counted, thru week 12): 8/10
- MAXIMUM CHANGE > 30% THRU WEEK 12, (%) of patients ([1]; share of patients with CD4^+ change of 30% or more over baseline, thru week 12): (80%)
